Structures are written as SMILES.

The target in the first assay is T1, SIRT1 (Homo sapiens, UniProt Q96EB6).
T1 sequence (Q96EB6 1-747): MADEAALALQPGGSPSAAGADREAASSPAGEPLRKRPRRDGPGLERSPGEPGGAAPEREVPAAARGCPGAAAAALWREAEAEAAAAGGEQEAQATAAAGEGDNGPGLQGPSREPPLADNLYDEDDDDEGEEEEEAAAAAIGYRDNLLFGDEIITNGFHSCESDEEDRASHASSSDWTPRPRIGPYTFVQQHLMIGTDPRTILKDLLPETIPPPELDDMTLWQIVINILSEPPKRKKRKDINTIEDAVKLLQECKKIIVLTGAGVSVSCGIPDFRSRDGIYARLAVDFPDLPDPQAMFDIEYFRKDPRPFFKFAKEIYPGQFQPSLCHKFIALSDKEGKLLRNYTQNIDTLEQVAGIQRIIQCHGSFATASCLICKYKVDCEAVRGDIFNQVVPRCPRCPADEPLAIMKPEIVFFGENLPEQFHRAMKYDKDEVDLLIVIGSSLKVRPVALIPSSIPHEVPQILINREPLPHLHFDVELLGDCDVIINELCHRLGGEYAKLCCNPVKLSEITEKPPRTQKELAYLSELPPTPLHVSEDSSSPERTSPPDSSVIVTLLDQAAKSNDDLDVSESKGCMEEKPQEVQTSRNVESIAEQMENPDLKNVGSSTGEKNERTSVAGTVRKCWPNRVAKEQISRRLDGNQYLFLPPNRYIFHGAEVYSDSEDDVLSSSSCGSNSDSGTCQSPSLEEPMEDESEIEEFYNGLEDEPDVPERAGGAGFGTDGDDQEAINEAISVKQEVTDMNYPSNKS
Put plainly: Trp mass spectrometry assay of SIRT1 activation. The assay is classed as biochemical. The conditions noted are these: Trp mass spectrometry assay; EC1.5 = concentration of test compound that results in 150% activation of SIRT1. The procedure, abridged:
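N-terminal His-tagged human SIRT1 (10 nM, E. coli BL21(DE3)) with 0.5 μM Ac-RHKK(Ac)W-NH2 peptide and 120 μM βNAD+, 25 min at 25 °C in HEPES pH 7.5, formic acid stop. OAADPR or deacetylated peptide quantified by mass spectrometry; EC1.5 (50% activity increase over control) and Percent Maximum Activation reported.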
With `Cc1cncc(-c2ccc3c(n2)N(C(=O)Nc2cnccn2)[C@H]2CCCN3C2)c1` [Example 512], the “Tryp AVG EC1.5 (μM)” value is “B (B (EC1.5 1-25 μM))”. Same read-out and setting: then `Cc1ccncc1-c1ccc2c(n1)N(C(=O)Nc1cnccn1)[C@H]1CCCN2C1` [Example 513], with “C (C (EC1.5>25 μM))”. On to `Cc1ccc(-c2ccc3c(n2)N(C(=O)Nc2cccnc2)[C@H]2CCCN3C2)cn1` [Example 514], for which the “Tryp AVG EC1.5 (μM)” value is listed as “B (B (EC1.5 1-25 μM))”.

On to `Cc1cncc(-c2ccc3c(n2)N(C(=O)Nc2cccnc2)[C@H]2CCCN3C2)c1` [Example 515], for which the “Tryp AVG EC1.5 (μM)” value is on record as “A (A (EC1.5<1 μM))”. For the molecule `Cc1ccncc1-c1ccc2c(n1)N(C(=O)Nc1cccnc1)[C@H]1CCCN2C1` [Example 516], the “Tryp AVG EC1.5 (μM)” value was “B (B (EC1.5 1-25 μM))”. On the same count and under the same terms, then `Cc1cncc(-c2ccc3c(n2)N(C(=O)Nc2ccncn2)[C@H]2CCCN3C2)c1` [Example 517], with “A (A (EC1.5<1 μM))”; and `Cc1ccncc1-c1ccc2c(n1)N(C(=O)Nc1ccncn1)[C@H]1CCCN2C1` [Example 518], with “C (C (EC1.5>25 μM))”; and `Cc1cncc(-c2ccc3c(n2)N(C(=O)Nc2cccnn2)[C@H]2CCCN3C2)c1` [Example 519], with “A (A (EC1.5<1 μM))”. Still for that read-out and setting: then `Cc1ccncc1-c1ccc2c(n1)N(C(=O)Nc1cccnn1)[C@H]1CCCN2C1` [Example 520], with “C (C (EC1.5>25 μM))”.

`O=C(Nc1cncc(F)c1)N1c2nc(-c3cccc(Cl)c3)ccc2N2CCC1CC2` [Example 521]: the “Tryp AVG EC1.5 (μM)” value is “B (B (EC1.5 1-25 μM))”. On the same count and under the same terms, then `COc1cc(NC(=O)N2c3nc(-c4cccc(Cl)c4)ccc3N3CCC2CC3)ncn1` [Example 522], with “B (B (EC1.5 1-25 μM))”; and `COc1cc(NC(=O)N2c3nc(-c4cccc(Cl)c4)ccc3N3CCC2CC3)nc(OC)n1` [Example 523], with “A (A (EC1.5<1 μM))”. The same measure, in the same setting: next, `Cn1nccc1-c1ccc2c(n1)N(C(=O)Nc1cccnc1)[C@H]1CCN2C1` [Example 524]: “B (B (EC1.5 1-25 μM))”; `Cc1n[nH]c(C)c1-c1ccc2c(n1)N(C(=O)Nc1cccnc1)[C@H]1CCN2C1` [Example 525]: “B (B (EC1.5 1-25 μM))”. Regarding `O=C(Nc1cccnc1)N1c2nc(-c3cncc(Cl)c3)ccc2N2CC[C@H]1C2` [Example 526], the “Tryp AVG EC1.5 (μM)” value was “A (A (EC1.5<1 μM))”.

For the molecule `COc1cc(NC(=O)N2c3nc(-c4cccc(N5CCOCC5)c4)ccc3N3CCC[C@H]2C3)ncn1` [Example 528], the “Tryp AVG EC1.5 (μM)” value was “B (B (EC1.5 1-25 μM))”. Take `O=C(Nc1ccncn1)N1c2nc(-c3cccc(N4CCOCC4)c3)ccc2N2CCC[C@H]1C2` [Example 529]: the “Tryp AVG EC1.5 (μM)” value was “B (B (EC1.5 1-25 μM))”. Consider `O=C(O)c1cc(NC(=S)NCc2ccc(NC(=O)N3c4nc(-c5cccc(C(F)(F)F)c5)ccc4N4CC[C@H]3C4)cc2)ccc1-c1c2ccc(=O)cc-2oc2cc(O)ccc12` [Example 530], for which the “Tryp AVG EC1.5 (μM)” value is listed as “A (A (EC1.5<1 μM))”. The same measure, in the same setting: then `Cc1c(-c2ccc3c(n2)C(C(=O)Nc2ccccn2)[C@H]2CCN3C2)cnn1C` (stereo partly drawn) [Example 531], with “B (B (EC1.5 1-25 μM))”. Regarding `Cc1c(-c2ccc3c(n2)C(C(=O)Nc2cnccn2)[C@H]2CCN3C2)cnn1C` (stereo partly drawn) [Example 532], the “Tryp AVG EC1.5 (μM)” value is listed as “B (B (EC1.5 1-25 μM))”.

With `O=C(Nc1ccccn1)N1c2nc(-c3cccc(Cl)c3)ccc2N2CCC1CC2` [Example 533], the “Tryp AVG EC1.5 (μM)” value is “B (B (EC1.5 1-25 μM))”. Same read-out and setting: next, `O=C(Nc1ccncn1)N1c2nc(-c3cccc(Cl)c3)ccc2N2CCC1CC2` [Example 534]: “B (B (EC1.5 1-25 μM))”; `N#Cc1cncc(-c2ccc3c(n2)N(C(=O)Nc2cncc(F)c2)[C@H]2CCCN3C2)c1` [Example 535]: “B (B (EC1.5 1-25 μM))”; `O=C(Nc1ccccn1)N1c2nc(-c3cccc(N4CCOCC4)c3)ccc2N2CCC[C@H]1C2` [Example 536]: “B (B (EC1.5 1-25 μM))”. For `Cc1nc(NC(=O)N2c3nc(-c4cccc(N5CCOCC5)c4)ccc3N3CCC[C@H]2C3)sc1C` [Example 537], the “Tryp AVG EC1.5 (μM)” value is “B (B (EC1.5 1-25 μM))”. On the same count and under the same terms, next, `O=C(Nc1cccnc1)N1c2nc(-c3cccc(N4CCOCC4)c3)ccc2N2CCC[C@H]1C2` [Example 538]: “A (A (EC1.5<1 μM))”; `O=C(Nc1cccnn1)N1c2nc(-c3cccc(N4CCOCC4)c3)ccc2N2CCC[C@H]1C2` [Example 539]: “B (B (EC1.5 1-25 μM))”; `Cc1cc(NC(=O)N2c3nc(-c4cccc(C(F)(F)F)c4)ccc3N3CC[C@H]2C3)cc(Br)n1` [Example 540]: “A (A (EC1.5<1 μM))”. On the same count and under the same terms, next, `O=C(Nc1ccnc(Br)c1)N1c2nc(-c3cccc(C(F)(F)F)c3)ccc2N2CC[C@H]1C2` [Example 541]: “A (A (EC1.5<1 μM))”; `O=C(Nc1cncc(Br)c1)N1c2nc(-c3cccc(C(F)(F)F)c3)ccc2N2CC[C@H]1C2` [Example 542]: “A (A (EC1.5<1 μM))”; `O=C(Nc1cnccn1)N1c2nc(-c3cccc(Cl)c3)ccc2N2CCC1CC2` [Example 543]: “B (B (EC1.5 1-25 μM))”. On the same count and under the same terms, then `O=C(Nc1cccnc1)N1c2nc(-c3cncc(Cl)c3)ccc2N2CCC1CC2` [Example 544], with “B (B (EC1.5 1-25 μM))”; and `O=C(Nc1cncc(F)c1)N1c2nc(-c3cncc(Cl)c3)ccc2N2CCC1CC2` [Example 545], with “B (B (EC1.5 1-25 μM))”. With `O=C(CCCCCNC(=O)c1ccc(-c2c3ccc(=O)cc-3oc3cc(O)ccc23)c(C(=O)O)c1)NCc1ccc(NC(=O)N2c3nc(-c4cccc(C(F)(F)F)c4)ccc3N3CC[C@H]2C3)cc1` [Example 547], the “Tryp AVG EC1.5 (μM)” value was “C (C (EC1.5>25 μM))”. Still for that read-out and setting: next, `CC1(CCC(=O)NCc2ccc(NC(=O)N3c4nc(-c5cccc(C(F)(F)F)c5)ccc4N4CC[C@H]3C4)cc2)N=N1` [Example 548]: “B (B (EC1.5 1-25 μM))”; `O=C(Nc1cccnc1)N1c2nc(-c3cnn(-c4ccccc4)c3)ccc2N2CC[C@H]1C2` [Example 549]: “B (B (EC1.5 1-25 μM))”; `O=C(Nc1cnccn1)N1c2nc(-c3cncc(Cl)c3)ccc2N2CCC1CC2` [Example 550]: “B (B (EC1.5 1-25 μM))”. For `O=C(Nc1ccccn1)N1c2nc(-c3cncc(Cl)c3)ccc2N2CCC1CC2` [Example 551], the “Tryp AVG EC1.5 (μM)” value is “B (B (EC1.5 1-25 μM))”.

On to `COc1cc(NC(=O)N2c3nc(-c4cncc(Cl)c4)ccc3N3CCC2CC3)ncn1` [Example 552], for which the “Tryp AVG EC1.5 (μM)” value is given as “C (C (EC1.5>25 μM))”. On the same count and under the same terms, next, `COc1cc(NC(=O)N2c3nc(-c4cncc(Cl)c4)ccc3N3CCC2CC3)nc(OC)n1` [Example 553]: “B (B (EC1.5 1-25 μM))”; `Cc1nc(NC(=O)N2c3nc(-c4cncc(Cl)c4)ccc3N3CCC2CC3)sc1C` [Example 554]: “B (B (EC1.5 1-25 μM))”; `O=C(Nc1cnccn1)N1c2nc(-c3cncc(F)c3)ccc2N2CCC1CC2` [Example 555]: “B (B (EC1.5 1-25 μM))”. For `O=C(Nc1cccnc1)N1c2nc(-c3cncc(C(F)(F)F)c3)ccc2N2CC[C@H]1C2` [Example 556], the “Tryp AVG EC1.5 (μM)” value is given as “A (A (EC1.5<1 μM))”. On the same count and under the same terms, then `N#Cc1cncc(-c2ccc3c(n2)N(C(=O)Nc2ccccn2)[C@H]2CCCN3C2)c1` [Example 557], with “A (A (EC1.5<1 μM))”; and `N#Cc1cncc(-c2ccc3c(n2)N(C(=O)Nc2ccncn2)[C@H]2CCCN3C2)c1` [Example 558], with “B (B (EC1.5 1-25 μM))”. Take `O=C(Nc1cncc(F)c1)N1c2nc(-c3cccc(N4CCOCC4)c3)ccc2N2CCC[C@H]1C2` [Example 559]: the “Tryp AVG EC1.5 (μM)” value was “A (A (EC1.5<1 μM))”. Still for that read-out and setting: next, `O=C(Nc1cnccn1)N1c2nc(-c3cccc(N4CCOCC4)c3)ccc2N2CCC[C@H]1C2` [Example 560]: “B (B (EC1.5 1-25 μM))”; `Cc1cc(-c2ccc3c(n2)N(C(=O)Nc2cnc(OC[C@@H](O)CO)cn2)[C@H]2CCN3C2)ccn1` [Example 561]: “B (B (EC1.5 1-25 μM))”. As to `O=C(Nc1cc(Br)cc(-c2cnco2)c1)N1c2nc(-c3cccc(C(F)(F)F)c3)ccc2N2CC[C@H]1C2` [Example 562], the “Tryp AVG EC1.5 (μM)” value is listed as “A (A (EC1.5<1 μM))”. For `O=C(O)c1cc(NC(=S)NCc2ccc(NC(=O)N3c4nc(-c5cccc(C(F)(F)F)c5)ccc4N4CCC[C@H]3C4)cc2)ccc1-c1c2ccc(=O)cc-2oc2cc(O)ccc12` [Example 563], the “Tryp AVG EC1.5 (μM)” value was “A (A (EC1.5<1 μM))”.

Turning to `Cc1nc(NC(=O)N2c3nc(-c4cccc(Cl)c4)ccc3N3CCC2CC3)sc1C` [Example 569], the “Tryp AVG EC1.5 (μM)” value is on record as “B (B (EC1.5 1-25 μM))”.

Still in this assay, the particulars now being: Trp mass spectrometry assay; percent maximum fold activation of SIRT1; read-out: Tryp % Fold Act.
Turning to `O=C(O)c1cc(NC(=S)NCc2ccc(NC(=O)N3c4nc(-c5cccc(C(F)(F)F)c5)ccc4N4CC[C@H]3C4)cc2)ccc1-c1c2ccc(=O)cc-2oc2cc(O)ccc12` [Example 530], the Emax was greater than 150%.

Regarding `Cc1c(-c2ccc3c(n2)C(C(=O)Nc2ccccn2)[C@H]2CCN3C2)cnn1C` (stereo partly drawn) [Example 531], the Emax was greater than 150%. Same read-out and setting: then `Cc1c(-c2ccc3c(n2)C(C(=O)Nc2cnccn2)[C@H]2CCN3C2)cnn1C` (stereo partly drawn) [Example 532], with greater than 150%.

(Values after US9834558B2, “Substituted bridged urea analogs as sirtuin modulators” (GLAXOSMITHKLINE LLC, priority 2013, dated 2017).)
